Experiment [1] addresses T1, human Trk A kinase (Homo sapiens, UniProt P04629).
T1 construct: HIS; made in house; host or cells: SF9 cells
As to the kind of experiment: Trk A kinase assay (Alphascreen, phosphorylation of PolyEY-biotin substrate). It is filed as biochemical. To be noted: 0.838 ng/ml Trk A, 70 μM ATP, 20 minutes, room temperature; read-out: IC50 (Trk inhibitory activity). As for the experimental part:
Trk A kinase activity was determined by measuring the kinase's ability to phosphorylate synthetic tyrosine residues within a generic polypeptide substrate using an Amplified Luminescent Proximity Assay (Alphascreen) technology (PerkinElmer, 549 Albany Street, Boston, Mass.).
To measure Trk A kinase activity, the intracellular domain of a HIS-tagged human Trk A kinase (amino acids 442-796 of Trk A, Swiss-Prot Primary Accession Number P04629) may be expressed in SF9 cells and purified using standard nickel column chromatography. After incubation of the kinase with a biotinylated substrate and adenosine triphosphate (ATP) for 20 minutes at room temperature, the kinase reaction may be stopped by the addition of 30 mM ethylenediaminetetraacetic acid (EDTA). The reaction may be performed in 384 well microtitre plates and the reaction products may be detected with the addition of strepavidin coated Donor Beads and phosphotyrosine-specific antibodies coated Acceptor Beads using the EnVision Multilabel Plate Reader after an overnight incubation at room temperature.
In general terms: In Alpha technology, singlet oxygen from a donor bead excites a nearby acceptor bead.

Experiment [2] addresses T2, human JAK2 (Homo sapiens, UniProt O60674).
T2 construct: human JAK2, amino acids 808-end; His6 (C); purchased Upstate Biotechnology; host or cells: baculovirus in Sf21 cells
Briefly: JAK2 kinase assay (Alphascreen, phosphorylation of biotinylated peptide substrate). It is filed as biochemical. To be noted: 150pM JAK2 enzyme, 30 μM ATP, 60 minutes, room temperature; read-out: IC50 (JAK inhibitory activity). As for the experimental part:
JAK2 kinase activity was determined by measuring the kinase's ability to phosphorylate synthetic tyrosine residues within a generic polypeptide substrate using an Amplified Luminescent Proximity Assay (Alphascreen) technology (PerkinElmer, 549 Albany Street, Boston, Mass.).
To measure JAK2 kinase activity, a commercially available purified enzyme may be used. The enzyme may be a C-terminal His6-tagged, recombinant, human JAK2, amino acids 808-end, (Genbank Accession number NM 004972) expressed by baculovirus in Sf21 cells (Upstate Biotechnology MA). After incubation of the kinase with a biotinylated substrate and adenosine triphosphate (ATP) for 60 minutes at room temperature, the kinase reaction may be stopped by the addition of 30 mM ethylenediaminetetraacetic acid (EDTA). The reaction may be performed in 384 well microtitre plates and the reaction products may be detected with the addition of streptavidin coated Donor Beads and phosphotyrosine-specific antibodies coated Acceptor Beads using the EnVision Multilabel Plate Reader after an overnight incubation at room temperature.

T1 sequence (P04629 442-796): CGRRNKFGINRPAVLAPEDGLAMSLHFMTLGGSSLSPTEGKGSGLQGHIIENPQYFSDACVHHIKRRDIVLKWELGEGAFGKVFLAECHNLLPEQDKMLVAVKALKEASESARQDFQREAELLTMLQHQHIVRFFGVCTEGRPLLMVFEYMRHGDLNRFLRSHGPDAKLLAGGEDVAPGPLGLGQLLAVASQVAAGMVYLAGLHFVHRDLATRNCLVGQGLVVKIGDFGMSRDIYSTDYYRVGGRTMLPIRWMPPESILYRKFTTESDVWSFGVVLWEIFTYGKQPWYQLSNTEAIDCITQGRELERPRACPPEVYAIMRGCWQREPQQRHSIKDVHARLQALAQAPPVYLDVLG
T2 sequence (O60674 808-1132 limits assumed): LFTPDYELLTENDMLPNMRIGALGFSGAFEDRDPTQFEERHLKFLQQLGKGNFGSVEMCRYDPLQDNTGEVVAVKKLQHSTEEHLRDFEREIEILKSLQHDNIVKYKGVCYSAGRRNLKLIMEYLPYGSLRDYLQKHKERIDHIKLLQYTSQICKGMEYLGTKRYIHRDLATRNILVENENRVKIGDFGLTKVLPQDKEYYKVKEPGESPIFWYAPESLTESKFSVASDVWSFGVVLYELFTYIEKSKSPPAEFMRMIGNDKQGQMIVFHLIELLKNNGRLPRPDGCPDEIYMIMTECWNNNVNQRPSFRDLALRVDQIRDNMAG

For orientation: IC50 means the concentration at which inhibition is half-maximal. As for `C[C@@H](c1ccc(F)cn1)n1cnc2cc(F)c(Nc3cc(C4CC4)[nH]n3)nc21` [Example 1, N-(5-Cyclopropyl-1H-pyrazol-3-yl)-6-fluoro-3-[(1S)-1-(5-fluoropyridin-2-yl)-ethyl]-3H-imidazo[4,5-b]-pyridin-5-amine], in experiment [1], the IC50 amounted to 3 nM.
Same read-out and setting: the same measure for `C[C@@H](c1ccc(F)cn1)n1cnc2ccc(Nc3cc(C4CC4)[nH]n3)nc21` [Example 2, N-(5-Cyclopropyl-1H-pyrazol-3-yl)-3-[(1S)-1-(5-fluoropyridin-2-yl)ethyl]-3H-imidazo[4,5-b]pyridin-5-amine]: 23 nM.
As to `CCOc1cc(Nc2nc3c(cc2F)ncn3[C@@H](C)c2ccc(F)cn2)n[nH]1` [Example 3, N-(5-Ethoxy-1H-pyrazol-3-yl)-6-fluoro-3-[(1S)-1-(5-fluoropyridin-2-yl)-ethyl]-3H-imidazo[4,5-b]pyridin-5-amine], the IC50 in experiment [1] turned out to be 3 nM; in experiment [2] it was 11 nM.
For the molecule `CC(C)Oc1cc(Nc2nc3c(cc2F)ncn3[C@@H](C)c2ccc(F)cn2)n[nH]1` [Example 4, 6-Fluoro-3-[(1S)-1-(5-fluoropyridin-2-yl)-ethyl]-N-(5-isopropoxy-1H-pyrazol-3-yl)-3H-imidazo[4,5-b]pyridin-5-amine], the IC50 in experiment [1] was 3 nM.
Same read-out and setting: the same measure for `C[C@@H](c1ncc(F)cn1)n1cnc2cc(F)c(Nc3cc(C4CC4)[nH]n3)nc21` [Example 5, N-(5-Cyclopropyl-1H-pyrazol-3-yl)-6-fluoro-3-[(1S)-1-(5-fluoropyrimidin-2-yl)-ethyl]-3H-imidazo[4,5-b]pyridin-5-amine]: 3 nM; for `CC(C)Oc1cc(Nc2nc3c(cc2F)ncn3[C@@H](C)c2ncc(F)cn2)n[nH]1` [Example 6, 6-Fluoro-3-[(1S)-1-(5-fluoropyrimidin-2-yl)-ethyl]-N-(5-isopropoxy-1H-pyrazol-3-yl)-3H-imidazo[4,5-b]pyridin-5-amine]: 3 nM; for `COc1cc(Nc2nc3c(cc2F)ncn3[C@@H](C)c2ncc(F)cn2)n[nH]1` [Example 7, 6-Fluoro-3-[(1S)-1-(5-fluoropyrimidin-2-yl)-ethyl]-N-(5-methoxy-1H-pyrazol-3-yl)-3H-imidazo[4,5-b]pyridin-5-amine]: 3 nM.
The same measure, in the same setting: the same measure for `CC(C)Oc1cc(Nc2nc3c(cc2F)ncn3[C@@H](CO)c2ccc(F)cn2)n[nH]1` [Example 8, (2R)-2-{6-Fluoro-5-[(5-isopropoxy-1H-pyrazol-3-yl)-amino]-3H-imidazo[4,5-b]pyridine-3-yl}-2-(5-fluoropyridin-2-yl)-ethanol]: 3 nM; for `COc1cc(Nc2nc3c(cc2F)ncn3[C@@H](CO)c2ccc(F)cn2)n[nH]1` [Example 9, (2R)-2-{6-Fluoro-5-[(5-methoxy-1H-pyrazol-3-yl)-amino]-3H-imidazo[4,5-b]pyridin-3-yl}-2-(5-fluoropyridin-2-yl)-ethanol]: 3 nM.
Still for that read-out and setting: the same measure for `CCOc1cc(Nc2nc3c(cc2F)ncn3[C@@H](CO)c2ccc(F)cn2)n[nH]1` [Example 10, (2R)-2-{5-[(5-Ethoxy-1H-pyrazol-3-yl)-amino]-6-fluoro-3H-imidazo[4,5-b]pyridin-3-yl}-2-(5-fluoropyridin-2-yl)-ethanol]: 3 nM.
`COc1cc(Nc2nc3c(cc2F)ncn3[C@@H](C)c2ccc(F)cn2)n[nH]1` [Example 11, 6-Fluoro-3-[(1S)-1-(5-fluoropyridin-2-yl)-ethyl]-N-(5-methoxy-1H-pyrazol-3-yl)-3H-imidazol-[4,5-b]pyridin-5-amine]: the IC50 in experiment [1] is 3 nM.
Same read-out and setting: the same measure for `Cc1cc(Nc2nc3c(cc2F)ncn3[C@@H](C)c2ncc(F)cn2)n[nH]1` [Example 12, 6-Fluoro-3-[(1S)-1-(5-fluoropyrimidin-2-yl)ethyl]-N-(5-methy 1-1H-pyrazol-3-yl)-3H-imidazo[4,5-b]pyridin-5-amine]: 66 nM.
Still for that read-out and setting: the same measure for `Cc1cc(Nc2nc3c(cc2F)ncn3[C@@H](C)c2ccc(F)cn2)n[nH]1` [Example 13, 6-Fluoro-3-[(1S)-1-(5-fluoropyridin-2-yl)ethyl]-N-(5-methyl-1H-pyrazol-3-yl)-3H-imidazo[4,5-b]pyridin-5-amine]: 21 nM; for `Cc1cc(Nc2nc3c(cc2F)[nH]c(=O)n3[C@@H](C)c2ncc(F)cn2)n[nH]1` [Example 14, 6-Fluoro-3-[(1S)-1-(5-fluoropyrimidin-2-yl)ethyl]-5-[(5-methyl-1H-pyrazol-3-yl)amino]-1,3-dihydro-2H-imidazo[4,5-b]pyridin-2-one]: 3300 nM; for `Cc1cc(Nc2nc3c(cc2F)nc(C)n3[C@@H](C)c2ncc(F)cn2)n[nH]1` [Example 15, 6-Fluoro-3-[(1S)-1-(5-fluoropyrimidin-2-yl)ethyl]-2-methyl-N-(5-methyl-1H-pyrazol-3-yl)-3H-imidazo[4,5-b]pyridin-5-amine]: 9350 nM.
The same measure, in the same setting: the same measure for `Cc1cc(Nc2nc3c(cc2F)ncn3[C@@H](CO)c2ccc(F)cn2)n[nH]1` [Example 16, (2R)-2-{6-Fluoro-5-[(5-methyl-1H-pyrazol-3-yl)amino]-3H-imidazo[4,5-b]pyridin-3-yl}-2-(5-fluoropyridin-2-yl)ethanol]: 73 nM; for `Cc1cc(Nc2nc3c(cc2F)ncn3Cc2ncc(F)cc2F)n[nH]1` [Example 17, 3-[(3,5-Difluoropyridin-2-yl)methyl]-6-fluoro-N-(5-methyl-1H-pyrazol-3-yl)-3H-imidazo[4,5-b]pyridin-5-amine]: 283 nM; for `Cc1cc(Nc2nc3c(cc2F)nc(C)n3Cc2ncc(F)cc2F)n[nH]1` [Example 18, 3-[(3,5-Difluoropyridin-2-yl)methyl]-6-fluoro-2-methyl-N-(5-methyl-1H-pyrazol-3-yl)-3H-imidazo[4,5-b]pyridin-5-amine]: 393 nM.
